Results on 14 compounds are retold here after patent US8183243B2, “Melanocortin receptor agonists” (LG Life Sciences Ltd., priority 2008, dated 2012).

This test addresses T1, MC4R (Homo sapiens, UniProt P32245).
T1 construct: expressed in transfected cells; host or cells: HEK (Human Embryonic Kidney) permanent expression cell line HEK MC4R-Luc, co-expressing CRE-luciferase
Put plainly: MCR agonistic activity (luciferase assay / cAMP accumulation assay) on MC4R. The class given is cell-based. The conditions noted are these: HEK cell lines expressing MC4R, not said which. The protocol:
Physiological activity of the compounds of the present invention was assessed by measuring agonistic activity as well as binding activity for melanocortin receptors (MCR) according to methods A and B explained as follows.
As one of the methods to measure MCR agonistic activity of the compound according to the present invention, the expression level of a marker gene (for example, luciferase) which increases proportionally according to the increase of cAMP content in the cell, was measured.
First, permanent expression HEK (Human Embryonic Kidney) cell lines (HEK MC1R-Luc, MC3R-Luc, MC4R-Luc or MC5R-Luc) expressing the MCR gene of each subtype together with luciferase gene (CRE-LUC) under the control of CRE (cAMP Response Element) were constructed. The above cell lines were incubated in an incubator with 6% CO2 atmosphere at 37° C. using selection medium, DMEM(Dulbecco's Modified Eagles Medium) containing 10% heat-inactivated fetal bovine serum (Gibco/BRL), 100 unit/ml, penicillin (Gibco/BRL), 100 unit/ml streptomycin (Gibco/BRL), and 200 μg/ml geneticin (G418) (Gibco/BRL). When the cell covered 70% of total surface of the culture dish with 100 mm diameter, the culture dish was rinsed one time with 10 ml Phosphate Buffered Saline(PBS) free of Ca^++ and Mg^++, and then 3 ml PBS solution containing 0.05% trypsin and 0.53 mM EDTA was added thereto. After the trypsin/EDTA solution was removed, the cell lines were incubated in an thermostatic incubator for 1 minute at 37° C., and resuspended in 10 ml selection medium and centrifuged for 5 minutes at 1500 rpm. The supernatant was discarded and the settled cells were resuspended in 5 ml selection medium free of Phenol Red. The resulting cell-suspension was plated onto each well of 96-well culture plates for Luminometer(Costar) with a concentration of 5×10^4 cell in 100 μl culture medium for each well and incubated in the incubator with 6% CO2 atmosphere at 37° C. for 18 hours. With MCR agonists (Example compounds) diluted stepwise using the above culture medium, the cells were treated under the condition of the final DMSO concentration not exceeding 1%, and incubated for 5 hours in the atmosphere of 6% CO2 at 37° C. Then, 50 μl Bright-Glo (Promega) was added to each well. After allowing the treated cells to be at room temperature for 15 minutes, luminescence was measured for each well by using luminometer (Victor). The level of luminescence induced by the stepwise-diluted agonist was converted to relative % value to those by the treatment of 10 nM NDP-MSH. The EC50 indicates the concentration of each agonist for inducing 50% of maximal luminescence by each agonist and this value was measured by a statistical software (Prizm).
B. cAMP Accumulation Assay
As another method to measure MCR agonistic activity of the compound according to the present invention, an increase of cAMP amount in the cell was measured.
First, permanent expression HEK (Human Embryonic Kidney) cell lines (HEK MC1R-Luc, MC3R-Luc, MC4R-Luc or MCSR-Luc) expressing the MCR gene of each subtype were plated onto each well of 24-well culture plates for Luminometer(Costar) with a concentration of 2×10^5 cell in 1 ml culture medium for each well, and then incubated in an incubator with 6% CO2 atmosphere at 37° C. for 24 hours. The medium was removed from each well followed by rinsing with 0.5 ml cold DMEM one time. With MCR agonists (Example compounds) diluted stepwise using 200 μl DMEM including 500 μM IBMX (isobutylmethylxanthine), the cells were treated under the condition of the final DMSO concentration not exceeding 1%, and incubated for 30 minutes in the atmosphere of 6% CO2 at 37° C. Then, the cAMP amount in each cell was measured using Amersham cAMP assay Kit (TRK432).
More specifically, 14.4 μl of 6M PCA (60%) was added to each well, and allowed to be in ice for 10 minutes, and 200 μl sample was taken from each well and transferred to microcentrifuge tube. […]

Setting [1] is: method A (CRE-luciferase) or B (cAMP accumulation), read-out: EC50 value, agonistic activity to MC4R (range per group of Examples).
Setting [2] is: specific activities of representative compounds, method A or B, read-out: EC50.

Like-named read-outs stand apart in the source and are kept apart here.

T1 sequence (P32245 whole entry, species assumed): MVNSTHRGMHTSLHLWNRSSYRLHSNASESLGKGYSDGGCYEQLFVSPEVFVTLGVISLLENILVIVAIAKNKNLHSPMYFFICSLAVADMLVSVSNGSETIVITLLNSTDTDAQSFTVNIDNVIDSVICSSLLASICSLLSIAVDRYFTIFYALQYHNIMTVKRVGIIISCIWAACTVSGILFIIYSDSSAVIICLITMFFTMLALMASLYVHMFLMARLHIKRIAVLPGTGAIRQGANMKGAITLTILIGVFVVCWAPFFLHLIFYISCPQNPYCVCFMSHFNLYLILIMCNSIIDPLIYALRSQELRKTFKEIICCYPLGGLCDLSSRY

On to `CN1CCN(C(=O)[C@@H]2C[C@H](N(C(=O)C(C)(C)C)C3CCC(F)(F)CC3)CN2C(=O)[C@@H]2CN(C(C)(C)C)C[C@H]2c2ccc(F)cc2F)CC1` [Example 30, N-{(3S,5S)-1-{[(3S,4R)-1-tert-butyl-4-(2,4-difluorophenyl)pyrrolidin-3-yl]carbonyl}-5-[(4-methylpiperazin-1-yl)carbonyl]pyrrolidin-3-yl}-N-(4,4-difluorocyclohexyl)-2,2-dimethylpropanamide], for which, under setting [1], the EC50 was in the range of 0.1 to 10 nM.
As to `CN1CCN(C(=O)[C@@H]2C[C@H](N(C(=O)[C@@H]3CCCO3)C3CCC(F)(F)CC3)CN2C(=O)[C@@H]2CN(C(C)(C)C)C[C@H]2c2ccc(Cl)cc2)CC1` [Example 31, (2S)-N-{(3S,5S)-1-{[(3S,4R)-1-tert-butyl-4-(4-chlorophenyl)pyrrolidin-3-yl]carbonyl}-5-[(4-methylpiperazin-1-yl)carbonyl]pyrrolidin-3-yl}-N-(4,4-difluorocyclohexyl)tetrahydrofuran-2-carboxamide], the EC50 under setting [1] fell in the range of 10 to 100 nM.
As for `CN1CCN(C(=O)[C@H]2C[C@H](N(C(=O)[C@@H]3CCCO3)C3CCC(C)(C)CC3)CN2C(=O)[C@@H]2CN(C(C)(C)C)C[C@H]2c2ccc(F)cc2F)CC1` [Example 32, (2S)-N-{(3S,5R)-1-{[(3S,4R)-1-tert-butyl-4-(2,4-difluorophenyl)pyrrolidin-3-yl]carbonyl}-5-[(4-methylpiperazin-1-yl)carbonyl]pyrrolidin-3-yl}-N-(4,4-dimethylcyclohexyl)tetrahydrofuran-2-carboxamide], the EC50 under setting [1] lay in the range of 0.1 to 10 nM and the half-maximal effective concentration (EC50) under setting [2] was determined as 4 nM.
Consider `CN1CCN(C(=O)[C@H]2C[C@H](N(C(=O)C(C)(C)C)[C@H]3CC[C@@H](C)CC3)CN2C(=O)[C@@H]2CN(C(C)(C)C)C[C@H]2c2ccc(F)cc2F)CC1` [Example 33, N-{(3S,5R)-1-{[(3S,4R)-1-tert-butyl-4-(2,4-difluorophenyl)pyrrolidin-3-yl]carbonyl}-5-[(4-methylpiperazin-1-yl)carbonyl]pyrrolidin-3-yl}-2,2-dimethyl-N-(cis-4-methylcyclohexyl)propanamide], for which the half-maximal effective concentration (EC50) under setting [1] is 10 to 100 nM.
`CN1CCN(C(=O)[C@H]2C[C@H](N(C(=O)[C@@H]3CCCO3)C3CCC(C)(C)CC3)CN2C(=O)[C@@H]2CN(C(C)(C)C)C[C@H]2c2ccc(Cl)cc2)CC1` [Example 34, (2S)-N-{(3S,5R)-1-{[(3S,4R)-1-tert-butyl-4-(4-chlorophenyl)pyrrolidin-3-yl]carbonyl}-5-[(4-methylpiperazin-1-yl)carbonyl]pyrrolidin-3-yl}-N-(4,4-dimethylcyclohexyl)tetrahydrofuran-2-carboxamide]: the EC50 under setting [1] is 0.1 to 10 nM.
Take `CN1CCN(C(=O)[C@H]2C[C@H](N(C(=O)C(C)(C)CO)[C@H]3CC[C@@H](C)CC3)CN2C(=O)[C@@H]2CN(C(C)(C)C)C[C@H]2c2ccc(Cl)cc2)CC1` [Example 36, N-{(3S,5R)-1-{[(3S,4R)-1-tert-butyl-4-(4-chlorophenyl)pyrrolidin-3-yl]carbonyl}-5-[(4-methylpiperazin-1-yl)carbonyl]pyrrolidin-3-yl}-3-hydroxy-2,2-dimethyl-N-(cis-4-methylcyclohexyl)propanamide]: under setting [1], the EC50 fell in the range of 0.1 to 10 nM.
Still for that read-out and setting: the same measure for `CC(=O)N([C@H]1C[C@H](C(=O)N2CCN(C)CC2)N(C(=O)[C@@H]2CN(C(C)(C)C)C[C@H]2c2ccc(Cl)cc2)C1)[C@H]1CC[C@@H](C)CC1` [Example 37, N-{(3S,5R)-1-{[(3S,4R)-1-tert-butyl-4-(4-chlorophenyl)pyrrolidin-3-yl]carbonyl}-5-[(4-methylpiperazin-1-yl)carbonyl]pyrrolidin-3-yl}-N-(cis-4-methylcyclohexyl)acetamide]: 0.1 to 10 nM; for `CC(=O)N([C@H]1C[C@H](C(=O)N2CCN(C)CC2)N(C(=O)[C@@H]2CN(C(C)(C)C)C[C@H]2c2ccc(F)cc2F)C1)[C@H]1CC[C@@H](C)CC1` [Example 38, N-{(3S,5R)-1-{[(3S,4R)-1-tert-butyl-4-(2,4-difluorophenyl)pyrrolidin-3-yl]carbonyl}-5-[(4-methylpiperazin-1-yl)carbonyl]pyrrolidin-3-yl}-N-(cis-4-methylcyclohexyl)acetamide]: 0.1 to 10 nM; for `CC(=O)N([C@H]1C[C@H](C(=O)N2CCN(C(C)C)CC2)N(C(=O)[C@@H]2CN(C(C)(C)C)C[C@H]2c2ccc(Cl)cc2)C1)[C@H]1CC[C@@H](C)CC1` [Example 39, N-{(3S,5R)-1-{[(3S,4R)-1-tert-butyl-4-(4-chlorophenyl)pyrrolidin-3-yl]carbonyl}-5-[(4-isopropylpiperazin-1-yl)carbonyl]pyrrolidin-3-yl}-N-(cis-4-methylcyclohexyl)acetamide]: 0.1 to 10 nM.
In the case of `CN1CCN(C(=O)[C@@H]2C[C@H](N(C(=O)[C@@H]3CCCO3)C3CCC(C)(C)CC3)CN2C(=O)[C@@H]2CN(C3CCOCC3)C[C@H]2c2ccc(Cl)cc2)CC1` [Example 41, (2S)-N-{(3S,5S)-1-{[(3S,4R)-4-(4-chlorophenyl)-1-(tetrahydro-2H-pyran-4-yl)pyrrolidin-3-yl]carbonyl}-5-[(4-methylpiperazin-1-yl)carbonyl]pyrrolidin-3-yl}-N-(4,4-dimethylcyclohexyl)tetrahydrofuran-2-carboxamide], the EC50 runs as follows: under setting [1], 0.1 to 10 nM; under setting [2], 3 nM.
Turning to `CN1CCN(C(=O)[C@@H]2C[C@H](N(C(=O)[C@@H]3CCCO3)C3CCC(C)(C)CC3)CN2C(=O)[C@@H]2CN(C3CC3)C[C@H]2c2ccc(Cl)cc2)CC1` [Example 42, (2S)-N-{(3S,5S)-1-{[(3S,4R)-4-(4-chlorophenyl)-1-cyclopropylpyrrolidin-3-yl]carbonyl}-5-[(4-methylpiperazin-1-yl)carbonyl]pyrrolidin-3-yl}-N-(4,4-dimethylcyclohexyl)tetrahydrofuran-2-carboxamide], the EC50 under setting [1] lay within 10 to 100 nM.
Turning to `Cc1ccc(N2C[C@@H](C(=O)N3C[C@@H](N(C(=O)[C@@H]4CCCO4)C4CCC(C)(C)CC4)C[C@H]3C(=O)N3CCN(C)CC3)[C@H](c3ccc(Cl)cc3)C2)nn1` [Example 43, (2S)-N-{(3S,5S)-1-{[(3S,4R)-4-(4-chlorophenyl)-1-(6-methylpyridazin-3-yl)pyrrolidin-3-yl]carbonyl}-5-[(4-methylpiperazin-1-yl)carbonyl]pyrrolidin-3-yl}-N-(4,4-dimethylcyclohexyl)tetrahydrofuran-2-carboxamide], the EC50 reads like this: under setting [1], 0.1 to 10 nM; under setting [2], 10 nM.
Regarding `CN1CCN(C(=O)[C@@H]2C[C@H](N(C(=O)[C@@H]3CCCO3)[C@H]3CC[C@@H](C)CC3)CN2C(=O)[C@@H]2CN(c3ccc(Cl)nn3)C[C@H]2c2ccc(F)cc2F)CC1` [Example 44, (2S)-N-{(3S,5S)-1-{[(3S,4R)-4-(2,4-difluorophenyl)-1-(6-chloropyridazin-3-yl)pyrrolidin-3-yl]carbonyl}-5-[(4-methylpiperazin-1-yl)carbonyl]pyrrolidin-3-yl}-N-(cis-4-methylcyclohexyl)tetrahydrofuran-2-carboxamide], the EC50 under setting [1] lay in the range of 10 to 100 nM.
With `CN1CCN(C(=O)[C@@H]2C[C@H](N(C(=O)[C@@H]3CCCO3)C3CCC(C)(C)CC3)CN2C(=O)[C@@H]2CN(c3cccnn3)C[C@H]2c2ccc(F)cc2F)CC1` [Example 45], the EC50 under setting [1] was 0.1 to 10 nM and the EC50 under setting [2] amounted to 8 nM.
